Active and inactive are the calls of the source.
Legend:
HEK293 [1] = assay: cells; settings: Homo sapiens
HEK293 [2] = assay: cells; settings: Homo sapiens; remark: listed apart in the source
Cytochrome P450 3A4 = Cytochrome P450 3A4 (Homo sapiens, UniProt P08684);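 further: CYP3A4 tested as one member of a cytochrome P450 panel screen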
Nonstructural protein 1 = Nonstructural protein 1 (Influenza A virus, UniProt Q194T2); assay type: functional, Influenza A virus (A/California/07/2009(H1N1))
HEK293 [3] = assay: NOD1 signaling inhibitors, primary screen, cell-based, luminescence, uHTS (AID 1578); assay type: functional; settings: Homo sapiens
[4] = molecular target: T1, RNA-binding protein pos-1 (Caenorhabditis elegans, UniProt G5EF15); assay: inhibitors of POS-1/mex-3 RNA binding, dose response, biochemical, fluorescence polarization (AID 1964);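 further: purified POS-1 fused to maltose binding protein made in E. coli; potency of compounds blocking POS-1 binding to fluorescent RNA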
T1 sequence (G5EF15 whole entry): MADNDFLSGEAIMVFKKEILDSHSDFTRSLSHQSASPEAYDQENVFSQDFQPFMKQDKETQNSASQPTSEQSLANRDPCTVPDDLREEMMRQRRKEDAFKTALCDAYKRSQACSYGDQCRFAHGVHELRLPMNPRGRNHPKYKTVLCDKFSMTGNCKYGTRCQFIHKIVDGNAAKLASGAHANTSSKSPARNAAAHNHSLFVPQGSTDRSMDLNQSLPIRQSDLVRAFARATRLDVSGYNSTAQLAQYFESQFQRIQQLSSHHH

HEK293 [5] = assay: cells; assay type: functional, cell-based; settings: Homo sapiens
HEK293 [6] = assay: cells; assay type: functional, cell-based; settings: Homo sapiens; remark: listed apart in the source
[7] = molecular target: Nucleotide-binding oligomerization domain-containing protein 2 (Homo sapiens, UniProt Q9HC29); assay: NOD2 signaling inhibitors, cell-based, luminescence, uHTS, HEK293 (AID 1566); assay type: functional
HEK293 [8] = assay: NOD2 signaling inhibitors in MDP-stimulated cells, cell-based, uHTS, luminescence (AID 2001); assay type: functional; settings: Homo sapiens
HEK293 [9] = assay: cells; assay type: functional, cell-based; settings: Homo sapiens; remark: listed apart in the source
Aurora kinase A = molecular target: T2, Aurora kinase A (Homo sapiens, UniProt O14965); assay type: functional;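 further: value from the Navigating the Kinome kinase panel profiling, panel entry STK6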
T2 sequence (O14965 whole entry): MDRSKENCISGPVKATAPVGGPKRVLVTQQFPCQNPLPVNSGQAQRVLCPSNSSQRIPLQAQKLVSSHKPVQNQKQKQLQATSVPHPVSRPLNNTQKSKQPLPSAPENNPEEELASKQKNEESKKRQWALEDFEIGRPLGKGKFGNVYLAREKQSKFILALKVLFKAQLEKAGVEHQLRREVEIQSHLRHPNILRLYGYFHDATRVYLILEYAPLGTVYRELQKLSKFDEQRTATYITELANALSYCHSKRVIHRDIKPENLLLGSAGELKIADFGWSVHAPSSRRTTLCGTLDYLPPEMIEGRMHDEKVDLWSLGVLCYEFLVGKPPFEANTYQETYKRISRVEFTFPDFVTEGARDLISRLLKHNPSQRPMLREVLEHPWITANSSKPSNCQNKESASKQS

Aurora kinase B = Aurora kinase B (Homo sapiens, UniProt Q96GD4); assay type: functional
[10] = HEp-2 cell cytotoxicity, dose response, cytotoxicity control for RSV inhibitor project, HTS (AID 2410); assay type: functional; settings: human respiratory syncytial virus
[11] = system: Streptococcus sp. 'group A'; assay: growth inhibition of control SK(-) GAS strain, dose response, counter-screen for streptokinase expression inhibitor project, luminescence, kanamycin, BacTiterGlo, confirmation (AID 1900); assay type: functional, organism-based
Streptococcus = assay: Group A Streptococcus viability loss, dose response, counter-screen for streptokinase expression inhibitor project, luminescence, BacTiterGlo (AID 1915); assay type: functional, organism-based;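 further: potency for reduction of bacterial viability or growth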
CHO = assay: cytotoxicity in TLR9-MyD88 CHO cells, dose response, cytotoxicity control for TLR9-MyD88 binding inhibitor project, cell-based, luminescence (AID 588339); assay type: functional, hamster; settings: Cricetulus griseus;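 further: CHO cells stably coexpressing TLR9 and MyD88 fusions from primary screen; compound exposure lasted 48 hours before viability readout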
Beta Lactamase = Beta Lactamase (Pseudomonas aeruginosa, UniProt Q932Y6); assay: beta-lactamase reporter inhibitor potency, dose response, artefact control for TLR9-MyD88 binding inhibitor project, BLA reporter cells, FRET fluorescence (AID 588341); assay type: cell-based;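 further: cell based assay in CHO-K1 cells stably expressing beta-lactamase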
Sequence of Beta Lactamase (Q932Y6 whole entry): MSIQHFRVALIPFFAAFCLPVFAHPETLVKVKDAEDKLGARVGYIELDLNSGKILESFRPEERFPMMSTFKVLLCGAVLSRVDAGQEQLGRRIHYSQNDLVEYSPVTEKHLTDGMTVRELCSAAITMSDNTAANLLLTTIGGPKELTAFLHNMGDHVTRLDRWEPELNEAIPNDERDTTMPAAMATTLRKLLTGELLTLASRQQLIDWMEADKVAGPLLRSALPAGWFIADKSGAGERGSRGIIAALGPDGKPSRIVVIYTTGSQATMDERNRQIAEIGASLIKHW

Sequence of Aurora kinase B (Q96GD4 whole entry): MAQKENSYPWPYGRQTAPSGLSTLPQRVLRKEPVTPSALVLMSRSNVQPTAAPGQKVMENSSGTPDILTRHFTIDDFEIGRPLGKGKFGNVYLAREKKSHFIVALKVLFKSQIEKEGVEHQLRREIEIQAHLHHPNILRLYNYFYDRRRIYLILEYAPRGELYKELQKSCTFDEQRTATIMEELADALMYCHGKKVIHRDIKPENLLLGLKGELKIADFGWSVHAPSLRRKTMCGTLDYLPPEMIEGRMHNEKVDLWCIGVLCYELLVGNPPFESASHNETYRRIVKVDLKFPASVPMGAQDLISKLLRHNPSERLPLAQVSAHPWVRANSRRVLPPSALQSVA
Sequence of Nucleotide-binding oligomerization domain-containing protein 2 (Q9HC29 whole entry, the tested form may be a part): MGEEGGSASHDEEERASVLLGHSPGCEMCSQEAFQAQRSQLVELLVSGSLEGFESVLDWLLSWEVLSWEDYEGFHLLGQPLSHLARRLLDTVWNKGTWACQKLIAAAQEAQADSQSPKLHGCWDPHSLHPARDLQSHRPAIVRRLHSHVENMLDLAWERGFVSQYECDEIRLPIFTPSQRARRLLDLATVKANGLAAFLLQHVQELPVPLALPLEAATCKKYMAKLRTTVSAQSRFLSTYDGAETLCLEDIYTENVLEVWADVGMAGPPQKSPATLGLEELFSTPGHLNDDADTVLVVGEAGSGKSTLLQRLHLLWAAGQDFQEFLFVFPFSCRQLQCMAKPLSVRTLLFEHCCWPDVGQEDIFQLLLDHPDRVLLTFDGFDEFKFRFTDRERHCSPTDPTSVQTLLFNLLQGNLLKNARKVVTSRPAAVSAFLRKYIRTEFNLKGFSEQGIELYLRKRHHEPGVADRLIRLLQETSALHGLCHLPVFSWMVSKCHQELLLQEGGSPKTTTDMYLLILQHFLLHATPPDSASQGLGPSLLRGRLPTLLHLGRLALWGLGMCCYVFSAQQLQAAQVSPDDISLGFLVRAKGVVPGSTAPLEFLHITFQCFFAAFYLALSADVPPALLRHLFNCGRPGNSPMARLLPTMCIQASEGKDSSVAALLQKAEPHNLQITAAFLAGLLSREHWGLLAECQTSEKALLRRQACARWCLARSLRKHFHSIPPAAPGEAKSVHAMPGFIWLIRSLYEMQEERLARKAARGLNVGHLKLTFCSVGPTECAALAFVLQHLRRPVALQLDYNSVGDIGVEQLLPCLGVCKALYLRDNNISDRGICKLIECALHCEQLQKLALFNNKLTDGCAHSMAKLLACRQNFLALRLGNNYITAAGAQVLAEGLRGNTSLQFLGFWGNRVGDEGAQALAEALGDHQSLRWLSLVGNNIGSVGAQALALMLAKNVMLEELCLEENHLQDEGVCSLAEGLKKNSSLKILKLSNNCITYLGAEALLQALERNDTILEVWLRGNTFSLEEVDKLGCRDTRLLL
Sequence of Cytochrome P450 3A4 (P08684 whole entry): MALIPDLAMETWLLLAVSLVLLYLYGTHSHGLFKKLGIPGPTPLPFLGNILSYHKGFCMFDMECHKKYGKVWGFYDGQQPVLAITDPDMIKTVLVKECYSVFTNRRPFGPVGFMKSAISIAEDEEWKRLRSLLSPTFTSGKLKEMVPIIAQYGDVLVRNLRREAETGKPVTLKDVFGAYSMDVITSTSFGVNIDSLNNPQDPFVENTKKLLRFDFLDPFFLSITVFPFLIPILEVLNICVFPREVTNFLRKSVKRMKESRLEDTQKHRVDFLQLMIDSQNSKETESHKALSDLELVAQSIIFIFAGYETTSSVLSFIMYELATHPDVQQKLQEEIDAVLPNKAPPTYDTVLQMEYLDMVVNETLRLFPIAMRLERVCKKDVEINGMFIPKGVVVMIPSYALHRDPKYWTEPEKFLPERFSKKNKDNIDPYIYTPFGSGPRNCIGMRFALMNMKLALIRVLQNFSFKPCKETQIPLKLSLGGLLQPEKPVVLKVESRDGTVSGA
Sequence of Nonstructural protein 1 (Q194T2 whole entry): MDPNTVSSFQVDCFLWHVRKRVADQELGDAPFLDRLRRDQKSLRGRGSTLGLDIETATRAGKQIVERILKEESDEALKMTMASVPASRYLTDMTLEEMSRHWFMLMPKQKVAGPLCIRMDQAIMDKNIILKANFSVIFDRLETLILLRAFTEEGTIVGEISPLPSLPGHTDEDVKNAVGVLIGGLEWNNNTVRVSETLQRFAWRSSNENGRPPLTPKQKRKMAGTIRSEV

Structure (SMILES): Cc1cccc(/C=N/NC(=O)c2cccc([N+](=O)[O-])c2)n1
- EC50 (HEK293 [1]): > 59.6 µM (inactive)
- EC50 (HEK293 [2]): > 59.6 µM (inactive)

Structure (SMILES): O=C(c1cccc(F)c1)N1CCC2(CC1)CN(c1ncccn1)C2
- AC50 (Cytochrome P450 3A4): inconclusive

Structure (SMILES): CN(C)c1ccc(N=Nc2ccccc2C(=O)OCC(=O)NC2CCCC2)cc1
- IC50 (Nonstructural protein 1): 20.4 µM (active)

Structure (SMILES): CCOc1cc(/C=C2\C(=N)N3N=C(S(C)(=O)=O)SC3=NC2=O)ccc1OCCOc1cccc(OC)c1
- EC50 (HEK293 [3]): > 20 µM (inactive)
- EC50 [4]: > 300 µM (not active)
- IC50 (HEK293 [5]): > 20 µM (inactive)
- IC50 (HEK293 [6]): > 20 µM (inactive)
- EC50 [7]: 14.5 µM (active)
- IC50 (HEK293 [8]): > 20 µM (inactive)
- IC50 (HEK293 [9]): > 20 µM (inactive)

Structure (SMILES): COCCOC1CCC(n2nc(-c3ccc(Nc4nc5cc(Cl)ccc5o4)c(F)c3)c3c(N)ncnc32)CC1 (stereo not drawn)
- Ki (Aurora kinase A): 0.0398 µM (active)
- Ki (Aurora kinase B): 0.01 µM (active)

Structure (SMILES): Cn1c2ccccc2c(=O)c2ccc(C#Cc3ccc(N)cc3)cc21
- CC50 [10]: > 50 µM (active)
- EC50 [11]: 1.92 µM (active)
- EC50 (Streptococcus): 2.12 µM (active)
- IC50 (CHO): > 49.8 µM (inactive)
- IC50 (Beta Lactamase): 5.26 µM (active)
